The text below walks through data of US7317009B2, “Pyrrolopyridazine derivatives” (Astellas Pharma Inc., priority 2003, dated 2008).

SMILES strings stand for the structures.

Tested on in one series: not given
Assay: not given
Settings: not given
With `CCc1ccc2c(-c3cccc(C#N)c3)c3c(nn12)CCC3=O` [Example 10, 3-(6-Ethyl-1-oxo-2,3-dihydro-1H-cyclopenta[e]pyrrolo[1,2-b]pyridazin-9-yl)benzonitrile], the melting point (as a rule, the temperature of the solid-liquid transition) lay in the range of 150 to 154 °C. The same measure, in the same setting: the figure for `CCc1ccc2c(-c3cncc(OC)c3)c(CCC(=O)O)c(COC)nn12` [Example 498, 3-[7-ethyl-2-(methoxymethyl)-4-(5-methoxy-3-pyridinyl)pyrrolo[1,2-b]pyridazin-3-yl]propanoic acid] is 164 to 165 °C; for `CCc1ccc2c(-c3cncc(Cl)c3)c(CCC(=O)O)c(COC)nn12` [Example 502, 3-[4-(5-chloro-3-pyridinyl)-7-ethyl-2-(methoxymethyl)pyrrolo[1,2-b]pyridazin-3-yl]propanoic acid] it is 159 to 160 °C; for `CCc1ccc2c(-c3cncc(Br)c3)c(CCC(=O)NS(C)(=O)=O)c(C)nn12` [Example 390, N-{3-[4-(5-bromo-3-pyridinyl)-7-ethyl-2-methylpyrrolo[1,2-b]pyridazin-3-yl]propanoyl}methanesulfonamide] it is 196.5 to 197.5 °C.

On to `CCc1ccc2c(-c3cncc(OC)c3)c(CCCC(=O)O)c(COC)nn12` [Example 499, 4-[7-ethyl-2-(methoxymethyl)-4-(5-methoxy-3-pyridinyl)pyrrolo[1,2-b]pyridazin-3-yl]butanoic acid], for which the melting point is 140 to 141 °C. Still for that read-out and setting: the same measure for `CCc1ccc2c(-c3cncc(Br)c3)c(CCC(=O)NC)c(C)nn12` [Example 389, 3-[4-(5-bromo-3-pyridinyl)-7-ethyl-2-methylpyrrolo[1,2-b]pyridazin-3-yl]-N-methylpropanamide]: 172 to 174 °C. `CCc1ccc2c(-c3cncc(OC)c3)c(CCCCC(=O)O)c(COC)nn12` [Example 496, 5-[7-ethyl-2-(methoxymethyl)-4-(5-methoxy-3-pyridinyl)pyrrolo[1,2-b]pyridazin-3-yl]pentanoic acid] had a melting point of 111 to 112 °C.

Regarding `CCc1ccc2c(-c3ccnc(Cl)c3)c(CCCCC(=O)O)c(C)nn12` [Example 94, 5-[4-(2-Chloro-4-pyridinyl)-7-ethyl-2-methylpyrrolo[1,2-b]pyridazin-3-yl]pentanoic acid], the melting point was in the range of 139 to 140 °C. On the same count and under the same terms, the figure for `CCc1ccc2c(-c3cccc(C#N)c3)c(CCCCC(=O)Nc3ccccn3)c(-c3ccccc3)nn12` [Example 263, 5-[4-(3-Cyanophenyl)-7-ethyl-2-phenylpyrrolo[1,2-b]pyridazin-3-yl]-N-(2-pyridinyl)pentanamide] is 67 to 70 °C; for `CCc1ccc2c(-c3cccc(C#N)c3)c(CCCCC(=O)NC)c(-c3ccccc3)nn12` [Example 278, 5-[4-(3-Cyanophenyl)-7-ethyl-2-phenylpyrrolo[1,2-b]pyridazin-3-yl]-N-methylpentanamide] it is 60 °C; for `CCOC(=O)CC(=O)Cc1c(C)nn2c(Cl)ccc2c1-c1ccc(F)cc1` [Example 192, Ethyl 4-[7-chloro-4-(4-fluorophenyl)-2-methylpyrrolo[1,2-b]pyridazin-3-yl]-3-oxobutanoate] it is 116 to 118 °C. The same measure, in the same setting: the same measure for `CCc1ccc2c(-c3cncc(Br)c3)c(CCCCC(=O)NS(C)(=O)=O)c(C)nn12` [Example 267, N-{5-[4-(5-Bromo-3-pyridinyl)-7-ethyl-2-methylpyrrolo[1,2-b]pyridazin-3-yl]pentanoyl}methanesulfonamide]: 124 to 125 °C; for `CCc1ccc2c(-c3cccc(Cl)c3)c(CCCCC(=O)NC)c(-c3ccccc3)nn12` [Example 280, 5-[4-(3-Chlorophenyl)-7-ethyl-2-phenylpyrrolo[1,2-b]pyridazin-3-yl]-N-methylpentanamide]: 70 to 72 °C; for `CCc1ccc2c(-c3cncc(Cl)c3)c(CCCC(=O)O)c(COC)nn12` [Example 501, 4-[4-(5-chloro-3-pyridinyl)-7-ethyl-2-(methoxymethyl)pyrrolo[1,2-b]pyridazin-3-yl]butanoic acid]: 112 to 113 °C. As to `CCc1ccc2c(-c3cncc(Br)c3)c(C(=O)OC)c(COC(C)=O)nn12` [Example 429, methyl 2-[(acetyloxy)methyl]-4-(5-bromo-3-pyridinyl)-7-ethylpyrrolo[1,2-b]pyridazine-3-carboxylate], the melting point lay within 122 to 123 °C.

As to `CCc1ccc2c(-c3cncc(Br)c3)c(CCC(=O)N3CCOCC3)c(C)nn12` [Example 388, 4-(5-bromo-3-pyridinyl)-7-ethyl-2-methyl-3-[3-(4-morpholinyl)-3-oxopropyl]pyrrolo[1,2-b]pyridazine], the melting point was in the range of 178 to 180 °C. Turning to `CCc1ccc2c(-c3cccc(Cl)c3)c(C#N)c(-c3ccccc3)nn12` [Example 7, 4-(3-Chlorophenyl)-7-ethyl-2-phenylpyrrolo[1,2-b]pyridazine-3-carbonitrile], the melting point was 172 to 173 °C. Still for that read-out and setting: the figure for `CCc1ccc2c(-c3cncc(Br)c3)c(CCC(=O)O)c(C)nn12` [Example 135, 3-[4-(5-Bromo-3-pyridinyl)-7-ethyl-2-methylpyrrolo[1,2-b]pyridazin-3-yl]propanoic acid] is 181 to 182 °C. The compound `CCc1ccc2c(-c3cccc(C#N)c3)c(CCCCC(=O)N3CCOCC3)c(-c3ccccc3)nn12` [Example 282, 3-{7-Ethyl-3-[5-(4-morpholinyl)-5-oxopentyl]-2-phenylpyrrolo[1,2-b]pyridazin-4-yl}benzonitrile] gave a melting point of 66 to 69 °C. On the same count and under the same terms, the same measure for `CCc1ccc2c(-c3cccc(Cl)c3)c(CCCCC(=O)N3CCOCC3)c(-c3ccccc3)nn12` [Example 279, 4-(3-Chlorophenyl)-7-ethyl-3-[5-(4-morpholinyl)-5-oxopentyl]-2-phenylpyrrolo[1,2-b]pyridazine]: 55 to 58 °C; for `CCc1ccc2c(-c3cncc(Cl)c3)c(CCCCC(=O)O)c(COC)nn12` [Example 503, 5-[4-(5-chloro-3-pyridinyl)-7-ethyl-2-(methoxymethyl)pyrrolo[1,2-b]pyridazin-3-yl]pentanoic acid]: 118 to 119 °C.

A further series addresses U937 Phosphodiesterase IV (PDE IV). The series is described as follows: Inhibition of U937 Phosphodiesterase IV (PDE IV). It counts as biochemical. The following applies: enzyme preparation from U937 cells, [3H]cAMP SPA assay, CI-930 10 μM added, 30° C. 15 minutes; read-out: IC50, inhibitory activity on PDE-IV. The protocol:
(a) Inhibition of U937 Phosphodiesterase IV (PDE IV)
Cultured U937 cells were washed twice and harvested with phosphate-buffered saline (PBS) by cell-scraper. After centrifugation, the cell pellet was suspended in homogenizing buffer (0.5% deoxycholate [DOC], 5 mM 2-mercaptoethanol, 1 μM leupeptin, 100 μM PMSF, 20 μM p-tosyl-L-lysine-chloromethyl ketone [TLCK] in PBS). The cell suspension was then sonicated for a couple of minutes and homogenized by a glass-Teflon homogenizer with twenty strokes. The homogenate was centrifuged at 200 g for 30 minutes, and the supernatant was further ultra-centrifuged at 100,000×g for 90 minutes (4° C.). […]
PDE4, activity was estimated with a Phosphodiesterase [^3H]cAMP SPA Enzyme Assay System (Amersham Pharmacia Biotech), using a 96 well Opti-plate. […] Radio-activity in each well was counted by a Top Counter. […]
IC50 values of test compounds for the enzyme activity of PDE4 was determined from regression analysis for log-logit conversion values of percent inhibition in the compound-treated tubes compared to that of the control. Percent inhibition was calculated with the following equation: Inhibition (%)={1−(C−B)/(A−B)}×100; in which A, B and C means mean values of radio-activity counts (dpm) of control, blank and the compound-treated tubes, respectively.
Regarding `CCc1ccc2c(-c3ccc(C(N)=O)cc3)c(CCCCCC(=O)O)c(C)nn12` [Example 198, 6-{4-[4-(Aminocarbonyl)phenyl]-7-ethyl-2-methylpyrrolo[1,2-b]pyridazin-3-yl}hexanoic acid], the IC50 (in general, the concentration that inhibits the measured activity by half) was below 1000 nM.

A further series relates to TNF-alpha production in LPS stimulated human peripheral blood mononuclear cells (PBMCs). Put plainly: Inhibition on TNF-alpha Production in Human Mononuclear Cells. It is filed as cell-based. The following applies: PBMC, LPS 1 μg/mL, 24 hours, TNF-alpha by ELISA, read-out: IC50, TNF-alpha production from stimulated PBMCs. The protocol:
(b) Inhibition on TNF-alpha Production in Human Mononuclear Cells 1. Test Method (1) Human Peripheral Blood Mononuclear Cells (PBMCs) Preparation
Blood (30 ml for each person) was collected from the median cubital vein of healthy volunteer was divided 15 mL each in heparin containing conical tube and the same volume of RPMI1640 was added to each tube. Diluted blood was then piled up to 20 mL of Ficoll-Paque PLUS (Amersham Pharmacia Biotech) in polystyrene centrifuge tube. After centrifugation at 1,600 rpm for 30 minutes, cells gathering in the center area of the gradient were collected by capillary and washed with 40 mL of RPMI1640 in several times with centrifugation at 1,200 rpm for 10 minutes. PBMC finally precipitated were suspended in RPMI1640 containing 1% fetal bovine serum and antibiotics. After cell counting, final suspension at 3×10^6 cells/mL in culture medium was prepared.
Human PBMCs prepared by the density gradient method using Ficoll-Paque PLUS were suspended in the culture medium mentioned above with the concentration of 3×10^6 cells/mL and 0.5 mL of the suspension was sowed into each well of a 24-well culture plate. Cells were incubated in the CO2 incubator for 24 hours with 0.25 mL of LPS in addition of 0.25 mL of concentrations of drugs or vehicle at the start of the incubation. […] TNF-alpha levels in the medium were measured by ELISA. […]
(An ELISA detects its analyte on a solid surface through an enzyme-linked reagent.)
`CCc1ccc2c(-c3ccc(C(N)=O)cc3)c(CCCCCC(=O)O)c(C)nn12` [Example 198, 6-{4-[4-(Aminocarbonyl)phenyl]-7-ethyl-2-methylpyrrolo[1,2-b]pyridazin-3-yl}hexanoic acid]: the IC50 was below 100 nM.
